A short description of experiment [1]: Antagonist activity at rat AMPA receptor expressed in Xenopus oocytes assessed as reduction of kainate-induced membrane current at 100 uM relative to kainate. The arrangement: scale not given: the % may be the effect or the level left. It counts as functional, Oocyte.
The subject of experiment [2] is Oocyte. Kind of experiment: Agonist activity at rat KA receptor expressed in Xenopus oocytes at 100 uM. The class given is functional, cell-based.
Experiment [3] has as its system Oocyte. Kind of experiment: Agonist activity at rat AMPA receptor expressed in Xenopus oocytes at 100 uM. The class given is functional, cell-based.
Experiment [4] is described as follows: Antagonist activity at rat KA receptor expressed in Xenopus oocytes assessed as reduction of kainate-induced membrane current at 100 uM relative to kainate. It counts as functional, Oocyte. The arrangement: scale not given: the % may be the effect or the level left.

Activity calls are given as the source filed them. No cut-off for these calls is given here.

With `Cc1ccc([C@H]2CC[C@](C(=O)O)([C@@H](O)[C@@H](N)C(=O)O)N2)cc1`, the Activity in experiment [1] and in experiment [4] was 83% in each case. The result with Oocyte [2] and in the experiment with Oocyte [3] was inactive.

Turning to `N[C@@H](C(=O)O)[C@H](O)[C@@]1(C(=O)O)CC[C@H](c2ccccc2)N1`, the Activity in experiment [1] and in experiment [4] was 72% in each case. Also, the outcome in the experiment with Oocyte [2] and in the experiment with Oocyte [3] was inactive.

For `Cc1cccc([C@H]2CC[C@](C(=O)O)([C@@H](O)[C@@H](N)C(=O)O)N2)c1`, the Activity in experiment [1] and in experiment [4] was 75% throughout. Also, the result in the experiment on Oocyte [2] and in the experiment with Oocyte [3] was inactive.

For `Cc1ccccc1[C@H]1CC[C@](C(=O)O)([C@@H](O)[C@@H](N)C(=O)O)N1`, the Activity in experiment [1] and in experiment [4] was 49% in each case. Further, the outcome in the experiment with Oocyte [2] and in the experiment with Oocyte [3] was inactive.
